According to US12077551B2, “Zinc complex, preparation thereof and use thereof for trerapy of human and animal diseases” (OBSCHESTVO S OGRANICHENNOI OTVETSTVENNOSTIYU “Z …, priority 2018, dated 2024):

Assays:
[1] = Solubility and dissociation of the product (NMR solvents, D2O spectrum); type: physicochemical
Description: The prepared resulting product is insoluble in solvents which are used to record NMR spectra.
It mainly contains the residual signal of the non-deuterated solvent, and low-intensity signals corresponding to the original gamma-L-glutamylhistamine.

[2] = system: mouse atopic dermatitis model; test: Mouse atopic dermatitis model (DNCB), histological analysis of the affected ear; type: in vivo, male mice of the balb/c strain
Experimental: Experimental technique. The study of Compound 1 activity in the model of atopic dermatitis was carried out using the standard technique [Evidence-based Complementary and Alternative Medicine. 2012. Article ID 545497, 9 pages). For the experimental group, we selected animals of average appearance without signs of deviations, with the weight of the animal being no more than ±20% from the average value within the sex. On days 0 and 12 of the experiment, male mice of the balb/c strain were treated with 100 μl of a 2% solution of 1-chloro-2,4-dinitrobenzene (DNCB) in ethanol applied to the previously shaved areas on the back to sensitize the body. On the 17th day, 20 μl of 2% alcohol solution of DNCB was applied to the “test” right ear of the animals twice with an interval of 1 hour. Compound 1 cream with an active substance content of 0.01 wt % was administered topically, to the “test” right ear, twice: 1 and 13 hours after the last application of DNCB to the ear. The following were used as a comparison/reference/control medications: Methylprednisolone aceponate ([…] ointment for external use), pyrithione zinc (0.2% cream for external use), pimecrolimus (1% cream for external use) and cream for external use containing gamma-L-glutamylhistamine 0.01%. On the 18th day, the animals were euthanized and the histological analysis of the affected ear was performed. Histological sections with a thickness of 5 μm were stained with hematoxylin-eosin. […] The data obtained were verified using the Grubbs test, also known as the maximum normalized residual test a test used to detect outliers in a data set. The values identified as “outliers” in this test were not used for further analysis. Descriptive statistics were used for all data: the mean (M) and standard error of the mean (m) were calculated. The normal distribution of the values obtained in the experiment was verified using the Kolmogorov-Smirnov test. In the case of a normal distribution, Student's t-test was used to assess intergroup differences. […] Differences were determined at a 5% confidence level.

[3] = biological target: recombinant intracellular human glutaminyl cyclase (Homo sapiens, UniProt Q9NXS2); test: Enzymatic activity of human glutaminyl cyclase in vitro (fluorescent substrate Gln-bNA); type: biochemical; settings: 25° C., 50 μM Gln-bNA, pH 8.0, enzyme incubated with compound for 5 minutes; read-out: IC50, inhibition of glutaminyl cyclase activity
Experimental: In the studies of the effect of Compound 1 (which is the subject of the present invention) on the enzymatic activity of glutaminyl cyclase in vitro, the direct inhibitory effect of Compound 1 on recombinant intracellular human glutaminyl cyclase was discovered.
The activity of glutaminyl cyclase at various Compound 1 concentrations was studied at 25° C. using the fluorescent substrate L-glutaminyl 2-naphthylamide (Gln-bNA) [Anal Biochem. 2002 Apr. 1; 303 (1): 49-56]. The reaction mixture with a volume of 100 μl contained 50 μM of a fluorogenic substrate; ˜0.2 units of human pyroglutaminyl aminopeptidase (1 unit is defined as the amount that hydrolyzes 1 micromole of pGlu-bNA per minute), and an aliquot of recombinant intracellular human glutaminyl cyclase (gQC) in […] trisaminomethane HCl and 5% glycerol, pH 8.0. The reaction was initiated by adding an aliquot of glutaminyl cyclase incubated with Compound 1 for 5 minutes to the reaction mixture.
Further progression of the reaction was monitored spectrophotometrically (excitation and emission wavelengths were 320 and 410 nm). Enzymatic activity was determined by the amount of released 2-naphthylamide (bNA), calculated based on the calibration curve. IC50 values were calculated using non-linear regression of the “inhibitor concentration”-“enzyme activity” curve.

recombinant intracellular human glutaminyl cyclase, sequence (Q9NXS2 whole entry): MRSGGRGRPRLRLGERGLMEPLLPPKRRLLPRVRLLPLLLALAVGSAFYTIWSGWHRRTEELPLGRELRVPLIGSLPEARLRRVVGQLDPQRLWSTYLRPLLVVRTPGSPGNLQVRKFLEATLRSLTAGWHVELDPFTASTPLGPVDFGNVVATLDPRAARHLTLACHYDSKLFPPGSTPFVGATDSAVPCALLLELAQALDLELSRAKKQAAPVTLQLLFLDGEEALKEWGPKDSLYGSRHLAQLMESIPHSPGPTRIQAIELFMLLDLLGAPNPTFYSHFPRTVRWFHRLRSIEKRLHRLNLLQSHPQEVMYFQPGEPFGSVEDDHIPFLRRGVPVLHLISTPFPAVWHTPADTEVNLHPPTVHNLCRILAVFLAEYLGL

Substance: zinc complex of gamma-L-glutamylhistamine [Compound 1]
- solubility in solvents used to record NMR spectra ([1]; product of Example 2): insoluble
- dissociation in aqueous suspensions ([1]; product of Example 2, D2O NMR spectrum): insignificant dissociation
- action in comparison with the gamma-L-glutamylhistamine ligand ([2]; 0.01 wt % cream vs cream containing gamma-L-glutamylhistamine 0.01%): significant improvement
- effectiveness in comparison with the reference drugs methylprednisolone aceponate, zinc pyrithione and pimecrolimus ([2]; 0.01 wt % cream vs reference ointment/creams): superior performance
- influx of inflammatory cells (monocytes, dendritic cells, eosinophils and neutrophils) into the epidermis and dermis of the skin ([2]; 0.01 wt % cream, topical to right ear, 1 and 13 hours after last DNCB application, histology on day 18): to the level of intact animals
- IC50 [3]: 26 µM
